Laboratory results from publication PMC10526274, “Epithelial-Immune Cell Crosstalk Determines the Activation of Immune Cells In Vitro by the Human Cathelicidin LL-37 at Low Physiological Concentrations” (Biomolecules, 2023).

Tested on: primary blood monocytes
Test: Multiplex phosphoprotein signaling in monocyte lysates, monocytes alone + LL-37
Assay type: cell-based, human
Details: 1 µM LL-37, 2 h, mean MFI normalized to β-tubulin
Description: Primary blood monocytes were isolated from PBMCs by plastic adhesion in the wells of a 24-well plate 24 h prior to the experiment. For that, 2 × 10^6 PBMC were seeded in each well in 2 mL of RPMI-1640 without supplements and kept for 1 h in a humidified CO2-incubator (5% CO2, 37 °C). Then, the adhered monocytes were thoroughly washed 3 times with the culture medium without supplements, and 600 µL of the complete RPMI-1640, supplemented with 10% Human AB serum, was added into each well. Then, 24 h later, the medium in the wells of a 24-well plate was replaced by a fresh medium with or without 1 µM of LL-37, and the permeable inserts with Caco-2 monolayers with TEER > 400 Ω × cm^2, containing 400 μL of the complete medium in their apical chamber, were immediately placed into the appropriate wells for 2 h. Then, 2 h later, the culture medium and the inserts were carefully removed, and the cells in each well were washed with PBS and lysed in 100 µL of MILLIPLEX MAP Lysis Buffer (cat. #43-040, Merck, Darmstadt, Germany), containing phosphatase inhibitors including 1 mM sodium orthovanadate (Na3VO4). To prevent protein degradation, a protease inhibitor cocktail (cat. #535140, Merck) was freshly added to the MILLIPLEX MAP Lysis Buffer. Cell lysate preparation was performed in accordance with the manufacturer’s instructions.
The phosphorylation of the following key cell signaling kinases and transcription factors was measured in cell lysates by using the MILLIPLEX multi-pathway magnetic bead 9-plex kit (#48-680MAG, Merck), containing phosphorylation state-specific antibodies: ERK/MAP kinase 1/2 (Thr185/Tyr187), Akt (Ser473), STAT3 (Ser727), JNK (Thr183/Tyr185), p70S6 kinase (Thr412), NF-κB (Ser536), STAT5A/B (Tyr694/699), CREB (Ser133), and p38 (Thr180/Tyr182). β-Tubulin MAPmate magnetic beads (#46-713MAG, Merck) were used as an assay normalization control to normalize the total protein level between the samples. A multiplex assay was carried out in accordance with the manufacturer’s instructions with overnight incubation of the samples with primary antibodies to phosphorylated signaling proteins on the MAGPIX system (Merck) using the xPONENT 4.2 software (Merck). The final analysis of the acquired fluorescence data was performed with the MILLIPLEX Analyst v5.1 software (Merck). Normalized MFI values were compared with an unpaired two-sample t-test using GraphPad Prism v.8.0.1 (GraphPad Software). The p-values ≤ 0.05 were considered significant.

LL-37: the only human cathelicidin, host defense antimicrobial peptide of 37 a.a. residues, produced by solid-phase peptide synthesis
phosphorylated STAT3 (control 0.03): 0.04 MFI
phosphorylated NF-kB (control 96.21): 54.12 MFI
phosphorylated STAT5 (control 134.68): 66.15 MFI
phosphorylated JNK (control 214.97): 140.9 MFI
phosphorylated p70S6K (control 279.26): 462.14 MFI
phosphorylated Akt (control 3026): 2827 MFI
phosphorylated ERK 1/2 (control 5351): 4054 MFI
phosphorylated p38 (control 28314): 24565 MFI
phosphorylated CREB (control 151618): 112466 MFI
